In PubChem BioAssay (NCI):
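How tested: cells in 96-well plates exposed to compound for 48 hours at five concentrations. The concentration for full growth arrest is given as TGI.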

Assays:
Test in all cases: inhibition of tumour cell growth, NCI panel, 48 h
[1] = test system: UACC-257 melanoma
[2] = test system: A549 NSCLC
[3] = test system: A498 renal
[4] = test system: RXF 393 renal
[5] = test system: IGROV1 ovarian
[6] = test system: OVCAR-3 ovarian
[7] = test system: SNB-75 CNS
[8] = test system: HL-60(TB) leukemia
[9] = test system: HCT-116 colon
[10] = test system: M19-MEL melanoma
[11] = test system: SNB-19 CNS
[12] = test system: COLO 205 colon
[13] = test system: HT29 colon
[14] = test system: CAKI-1 renal
[15] = test system: RXF-631 renal
[16] = test system: LOX IMVI melanoma
[17] = test system: SK-OV-3 ovarian
[18] = test system: KM20L2 colon
[19] = test system: TK-10 renal
[20] = test system: U251 CNS
[21] = test system: MOLT-4 leukemia
[22] = test system: SF-539 CNS
[23] = test system: RPMI-8226 leukemia
[24] = test system: UACC-62 melanoma
[25] = test system: DMS 114 small cell lung
[26] = test system: NCI-H460 lung
[27] = test system: UO-31 renal
[28] = test system: HCT-15 colon
[29] = test system: NCI-H23 lung
[30] = test system: SF-295 CNS
[31] = test system: SK-MEL-28 melanoma
[32] = test system: SNB-78 CNS
[33] = test system: OVCAR-4 ovarian
[34] = test system: KM12 colon
[35] = test system: SF-268 CNS
[36] = test system: LXFL 529 NSCLC
[37] = test system: DMS 273 small cell lung
[38] = test system: DLD-1 colon
[39] = test system: HOP-62 NSCLC
[40] = test system: SK-MEL-5 melanoma
[41] = test system: SK-MEL-2 melanoma
[42] = test system: ACHN renal
[43] = test system: CCRF-CEM leukemia
[44] = test system: MALME-3M melanoma
[45] = test system: HCC-2998 colon
[46] = test system: OVCAR-8 ovarian
[47] = test system: M14 melanoma
[48] = test system: EKVX NSCLC
[49] = test system: 786-0 renal
[50] = test system: OVCAR-5 ovarian
[51] = test system: SW-620 colon
[52] = test system: SN12C renal
[53] = test system: XF 498 CNS
[54] = test system: K-562 leukemia
[55] = test system: NCI-H226 lung
[56] = test system: NCI-H522 lung
[57] = test system: HOP-18 NSCLC
[58] = test system: SR leukemia
[59] = test system: HOP-92 NSCLC

**Q.** Which results are given for CCOP(=O)(OCC)C1CC(C)OC1=O (centres undefined)?
**A.** TGI [1]: > 100 µM; TGI [2]: > 100 µM; TGI [3]: > 100 µM; TGI [4]: > 100 µM; TGI [5]: > 100 µM; TGI [6]: > 100 µM; TGI [7]: > 100 µM; TGI [8]: > 100 µM; TGI [9]: > 100 µM; TGI [10]: > 100 µM; TGI [11]: > 100 µM; TGI [12]: > 100 µM; TGI [13]: > 100 µM; TGI [14]: > 100 µM; TGI [15]: > 100 µM; TGI [16]: > 100 µM; TGI [17]: > 100 µM; TGI [18]: > 100 µM; TGI [19]: > 100 µM; TGI [20]: > 100 µM; TGI [21]: > 100 µM; TGI [22]: > 100 µM; TGI [23]: > 100 µM; TGI [24]: > 100 µM; TGI [25]: > 100 µM; TGI [26]: > 100 µM; TGI [27]: > 100 µM; TGI [28]: > 100 µM; TGI [29]: > 100 µM; TGI [30]: > 100 µM; TGI [31]: > 100 µM; TGI [32]: > 100 µM; TGI [33]: > 100 µM; TGI [34]: > 100 µM; TGI [35]: > 100 µM; TGI [36]: > 100 µM; TGI [37]: > 100 µM; TGI [38]: > 100 µM; TGI [39]: > 100 µM; TGI [40]: > 100 µM; TGI [41]: > 100 µM; TGI [42]: > 100 µM; TGI [43]: > 100 µM; TGI [44]: > 100 µM; TGI [45]: > 100 µM; TGI [46]: > 100 µM; TGI [47]: > 100 µM; TGI [48]: > 100 µM; TGI [49]: > 100 µM; TGI [50]: > 100 µM; TGI [51]: > 100 µM; TGI [52]: > 100 µM; TGI [53]: > 100 µM; TGI [54]: > 100 µM

**Q.** With CC(C)C(N=c1c2ccccc2n(O)c2ccccc12)C(=O)O (centres undefined) as the molecule, how does the TGI [1] read?
**A.** The TGI was over 100 µM.

**Q.** What about the TGI [2] of the same molecule?
**A.** The TGI was over 100 µM.

**Q.** And the TGI [3]?
**A.** The TGI was over 100 µM.

**Q.** What about the TGI [55] of the same molecule?
**A.** The TGI was over 100 µM.

**Q.** And the TGI [5]?
**A.** The TGI was over 100 µM.

**Q.** What about the TGI [6] of the same molecule?
**A.** The TGI was over 100 µM.

**Q.** What about the TGI [7] of the same molecule?
**A.** The TGI was over 100 µM.

**Q.** What about the TGI [8] of the same molecule?
**A.** Its TGI is over 100 µM.

**Q.** And the TGI [9]?
**A.** Its TGI is over 100 µM.

**Q.** What about the TGI [10] of the same molecule?
**A.** Its TGI is over 100 µM.

**Q.** And the TGI [11]?
**A.** Its TGI is over 100 µM.

**Q.** What about the TGI [12] of the same molecule?
**A.** The TGI was over 100 µM.

**Q.** What about the TGI [13] of the same molecule?
**A.** The TGI was over 100 µM.

**Q.** And the TGI [14]?
**A.** The TGI was over 100 µM.

**Q.** What about the TGI [15] of the same molecule?
**A.** The TGI was over 100 µM.

**Q.** What about the TGI [16] of the same molecule?
**A.** Its TGI is over 100 µM.

**Q.** And the TGI [17]?
**A.** The TGI was over 100 µM.

**Q.** And the TGI [18]?
**A.** The TGI was over 100 µM.

**Q.** What about the TGI [19] of the same molecule?
**A.** Its TGI is over 100 µM.

**Q.** And the TGI [20]?
**A.** Its TGI is over 100 µM.

**Q.** And the TGI [23]?
**A.** The TGI was over 100 µM.

**Q.** And the TGI [24]?
**A.** Its TGI is over 100 µM.

**Q.** What about the TGI [25] of the same molecule?
**A.** The TGI was over 100 µM.

**Q.** And the TGI [26]?
**A.** Its TGI is over 100 µM.

**Q.** And the TGI [27]?
**A.** The TGI was over 100 µM.

**Q.** What about the TGI [28] of the same molecule?
**A.** Its TGI is over 100 µM.

**Q.** And the TGI [29]?
**A.** The TGI was over 100 µM.

**Q.** What about the TGI [30] of the same molecule?
**A.** The TGI was over 100 µM.

**Q.** What about the TGI [31] of the same molecule?
**A.** The TGI was over 100 µM.

**Q.** And the TGI [32]?
**A.** Its TGI is over 100 µM.

**Q.** What about the TGI [33] of the same molecule?
**A.** The TGI was over 100 µM.

**Q.** What about the TGI [34] of the same molecule?
**A.** Its TGI is over 100 µM.

**Q.** And the TGI [35]?
**A.** The TGI was over 100 µM.

**Q.** What about the TGI [36] of the same molecule?
**A.** Its TGI is over 100 µM.

**Q.** And the TGI [37]?
**A.** The TGI was over 100 µM.

**Q.** What about the TGI [38] of the same molecule?
**A.** The TGI was over 100 µM.

**Q.** What about the TGI [39] of the same molecule?
**A.** Its TGI is over 100 µM.

**Q.** What about the TGI [56] of the same molecule?
**A.** The TGI was over 100 µM.

**Q.** What about the TGI [40] of the same molecule?
**A.** The TGI was over 100 µM.

**Q.** And the TGI [41]?
**A.** Its TGI is over 100 µM.

**Q.** And the TGI [42]?
**A.** Its TGI is over 100 µM.

**Q.** What about the TGI [57] of the same molecule?
**A.** Its TGI is over 100 µM.

**Q.** And the TGI [43]?
**A.** Its TGI is over 100 µM.

**Q.** And the TGI [44]?
**A.** Its TGI is over 100 µM.

**Q.** What about the TGI [45] of the same molecule?
**A.** The TGI was over 100 µM.

**Q.** And the TGI [46]?
**A.** Its TGI is over 100 µM.

**Q.** What about the TGI [47] of the same molecule?
**A.** Its TGI is over 100 µM.

**Q.** What about the TGI [48] of the same molecule?
**A.** Its TGI is over 100 µM.

**Q.** And the TGI [49]?
**A.** The TGI was over 100 µM.

**Q.** And the TGI [50]?
**A.** Its TGI is over 100 µM.

**Q.** And the TGI [51]?
**A.** The TGI was over 100 µM.

**Q.** What about the TGI [52] of the same molecule?
**A.** The TGI was over 100 µM.

**Q.** What about the TGI [54] of the same molecule?
**A.** Its TGI is over 100 µM.

**Q.** What does the source list for O=C(CC1C(=O)Nc2ccccc2S1(=O)=O)Nc1cc(Cl)ccc1Cl (centres undefined)?
**A.** TGI [1]: > 100 µM; TGI [2]: 33.1 µM; TGI [3]: 31.4 µM; TGI [4]: 32.7 µM; TGI [55]: 35.8 µM; TGI [5]: 26.9 µM; TGI [6]: 29 µM; TGI [7]: 31 µM; TGI [8]: 35.3 µM; TGI [9]: 28 µM; TGI [10]: 34.1 µM; TGI [11]: 29.8 µM; TGI [58]: 24.3 µM; TGI [13]: 34.3 µM; TGI [14]: 32 µM; TGI [15]: 88.9 µM; TGI [16]: 18.1 µM; TGI [18]: 32.6 µM; TGI [19]: 39.9 µM; TGI [20]: 22.6 µM; TGI [21]: 23.2 µM; TGI [22]: 7.23 µM; TGI [59]: 30.4 µM; TGI [23]: 13.4 µM; TGI [24]: 33.7 µM; TGI [25]: 27 µM; TGI [26]: 30.3 µM; TGI [27]: 31 µM; TGI [28]: 27.5 µM; TGI [29]: 40.4 µM; TGI [30]: 34.4 µM; TGI [31]: 41 µM; TGI [32]: 33.6 µM; TGI [33]: 32.8 µM; TGI [35]: 24.4 µM; TGI [36]: 27.1 µM; TGI [38]: 33.4 µM; TGI [40]: 30.3 µM; TGI [41]: 35.4 µM; TGI [42]: 35.7 µM; TGI [43]: 62.5 µM; TGI [44]: 40.6 µM; TGI [45]: 36.2 µM; TGI [46]: 41.9 µM; TGI [47]: 30.6 µM; TGI [48]: 30 µM; TGI [49]: 20.7 µM; TGI [50]: 71.1 µM; TGI [51]: 40.2 µM; TGI [52]: 30.2 µM; TGI [53]: 27.6 µM; TGI [54]: 42 µM
